Data from patent US20230312643A1, “PEPTIDE DERIVATIVE WITH COLLAGENASE INHIBITORY ACTIVITY, AND USE THEREOF” (SUNMARINE BIOTECH, priority 2020, published 2023).

Experiments:
[1] = HaCaT cytotoxicity test (MTS cell viability); format: cell-based; conditions: human, HaCaT cells (skin epidermal cells)
Method: HaCaT cells, skin epidermal cells (derived from human), were used. The medium was DMEM low (SH30021.01, HyClone™, Logan, UT, USA) medium containing 10% fetal bovine serum (FBS, Lonza, Valais, Switzerland) medium. The cell lines were cultured in an incubator adjusted to 95% humidity, 5% CO2 and 37° C., and at this time, a medium antibiotic (Penicillin streptomycin, Gibco, Calif., USA) was used to suppress contamination or proliferation of microorganisms. When the cells covered the dish about 80%, the cells were washed with phosphated-buffered saline-EDTA (PBS-EDTA), and then the cells attached to the bottom of the dish were detached by treating with 1 ml of 0.05% trypsin EDTA, and subjected to subculture. The medium was exchanged every 48 hours to culture the cells.
Cell viability was measured using MTS (CellTiter 96® AQueous One Solution Cell Proliferation Assay, Promega, USA) reagent. The cells were divided at a concentration of 1×10^4 cells/well in a 96-well plate and then stabilized for 24 hours in an incubator controlled to 95% humidity, 5% CO2 and 37° C. After that, the samples were treated for each concentration (table 1) and cultured for 24 hours in an incubator controlled to 95% humidity, 5% CO2 and 37° C. After the medium was removed, 9 ml of medium (DMEM low, free FBS) was added to 1 ml of the reagent and diluted, and then 100 ul of the diluted solution was treated per well. After the reaction at 37° C. for 60 minutes, absorbance was measured at 490 nm with microplate reader (Molecular Devices, VersaMax ELISA Microplate Reader, USA). Cell viability was represented by absorbance of a sample-treated group compared to a control group not treated with the sample.

[2] = test system: gelatinase; test: Gelatinase inhibitory activity (EnzChek Gelatinase/Collagenase Assay Kit, DQ gelatin); format: biochemical
Method: Gelatinase is an enzyme which plays a major role in promoting skin aging by more finely degrading collagen fragments digested by MMP-1 with MMP-2, and wrinkle reduction activity was determined by measuring the inhibitory activity of the enzyme.
(§1) Gelatinase inhibitory activity was performed by purchasing EnzChek® Gelatinase/Collagenase Assay Kit (250-2000 Assays) reagent from Invitrogen. First, DQ gelatin stock solution (1 mg/ml) was prepared by adding 1.0 ml of DDW to 1 mg DQ gelatin vial. The 18 ml of DDW was added to 2 ml of 10× reaction buffer, so as to dilute reaction buffer. Then, a gelatinase enzyme reagent was prepared, and diluted with reaction buffer to a final concentration of 0.2 U/ml as working solution. Three samples of 50 ? each were prepared in a 96-well plate. The 30 ? of reaction buffer was added to 20 ? of DQ gelatin and sample blank, and 30 ? of working solution was added to a sample, which were then left in a light-blocked state at room temperature for about one to two hours, and then fluorescence intensity was measured at excitation wavelength 485 nm and 535 nm using ELISA plate reader (VICTOR X3™, PerkinElmer, US).

[3] = biological target: T1, elastase (Sus scrofa, UniProt P00772); test: Elastase inhibitory activity (EnzChek Elastase Assay Kit, DQ elastin); format: biochemical
T1 construct: purchased Invitrogen
T1 sequence (P00772 27-266): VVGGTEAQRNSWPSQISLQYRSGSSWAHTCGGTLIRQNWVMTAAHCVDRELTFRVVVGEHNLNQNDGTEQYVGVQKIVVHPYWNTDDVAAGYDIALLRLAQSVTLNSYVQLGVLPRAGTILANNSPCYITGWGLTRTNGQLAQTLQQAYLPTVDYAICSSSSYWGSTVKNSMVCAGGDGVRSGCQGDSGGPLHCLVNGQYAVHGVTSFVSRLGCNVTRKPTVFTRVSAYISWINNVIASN
Method: Elastase inhibitory activity was performed by purchasing EnzChek® Elastase Assay Kit (600 Assays) reagent from Invitrogen. First, DQ elastin stock solution (1 mg/ml) was prepared by adding 1.0 ml of DDW to 1 mg DQ elastin vial. The 18 ml of DDW was added to 2 ml of 10× reaction buffer, so as to dilute reaction buffer. Then, an elastase enzyme reagent was prepared, and diluted with reaction buffer to a final concentration of 0.2 U/ml as working solution. Three samples of 50 ? each were prepared in a 96-well plate. The 50 ? of reaction buffer was added to 50 ? of DQ elastin and sample blank, and 50 ? of working solution was added to a sample, which were then left in a light-blocked state at room temperature for about one hour, and then fluorescence intensity was measured at excitation wavelength 505 nm and emission wavelength 515 nm using ELISA plate reader (VICTOR X3™, PerkinElmer, US).
Copper peptide (Comparative Example 12) and EGCg (Comparative Example 13), which is widely used as a raw material for functional cosmetics, were prepared at the same concentration and used as a positive control.
EGCg (epigallocatechin gallate) is a kind of polyphenol, which is an extract of green tea leaves, and is used as a cosmetic raw material for anti-oxidation, inflammation reduction, and wrinkle alleviation, and Copper peptide is used as a raw material for promoting wound healing, strengthening skin elasticity, and increasing subcutaneous fat layer to suppress skin aging due to excellent skin regeneration ability.

[4] = test system: collagenase; test: Collagenase inhibitory activity (EnzChek Gelatinase/Collagenase Assay Kit, DQ collagen); format: biochemical
Method: as §1, with “Collagenase inhibitory activity” for “Gelatinase inhibitory activity”, “First, DQ collagen stock solution” for “First, DQ gelatin stock solution”, “mg DQ collagen vial. The” for “mg DQ gelatin vial. The”, “Then, a collagenase enzyme reagent” for “Then, a gelatinase enzyme reagent”, “of DQ collagen and sample” for “of DQ gelatin and sample”, “nm and emission wavelength 535 nm” for “nm and 535 nm”
As a positive control, copper peptide (Comparative Example 12), which is a representative peptide widely used as a raw material for functional cosmetics, was prepared at the same concentration and used. Copper peptide has excellent skin regeneration ability and thus is used as a raw material to suppress skin aging by promoting wound healing, strengthening skin elasticity, and increasing subcutaneous fat layers.

NC(=O)C[C@H](NC(=O)CNC(=O)[C@@H]1CCCN1)C(=O)O [PGN, Pro-Gly-Asn, reference compound]
viability at 24 h, 1 µg/mL ([1]; 1 μg/ml): 118 ± 3.1% | viability at 24 h, 10 µg/mL ([1]; 10 μg/ml): 129 ± 2.8% | viability at 24 h, 50 µg/mL ([1]; 50 μg/ml): 125 ± 7.6% | viability at 24 h, 100 µg/mL ([1]; 100 μg/ml): 128 ± 4.1% | Gelatinase inhibitory activity ([2]; 0.2 mg/ml): 1.5 ± 5.5% | Gelatinase inhibitory activity ([2]; 0.3 mg/ml): 9.8 ± 0.8% | Gelatinase inhibitory activity ([2]; 0.4 mg/ml): 63.1 ± 2.1% | Gelatinase inhibitory activity ([2]; 0.5 mg/ml): 80.5 ± 1.2% | inhibition at 20 µg/mL ([3]; 0.02 mg/ml): 1.8 ± 0.6% | inhibition at 40 µg/mL ([3]; 0.04 mg/ml): 2.8 ± 1.2% | inhibition at 60 µg/mL ([3]; 0.06 mg/ml): 6.1 ± 1.9% | inhibition at 100 µg/mL ([3]; 0.1 mg/ml): 7.5 ± 3.2% | inhibition at 1000 µg/mL ([3]; 1 mg/ml): 7.5% | IC50 ([3]; FIGS. 8 and 9): 384 µM | Collagenase inhibitory activity ([4]; 0.05 mg/ml): 1.6 ± 3.3% | Collagenase inhibitory activity ([4]; 0.1 mg/ml): 4.7 ± 3.9% | Collagenase inhibitory activity ([4]; 0.5 mg/ml): 11.2 ± 6.2% | Collagenase inhibitory activity ([4]; 1 mg/ml): 13.1% | collagenase inhibitory activity IC50 ([4]; FIGS. 5 and 6): 1.577 mg/mL
